Columns and labels:
Format in all cases: cell-based, Human
[1] = test system: ARE sequence of the glutathione S-transferase Ya gene (SEQ ID NO: 5); test: Luciferase reporter assay, 3xARE/RBGP-Luc (ARE of SEQ ID NO: 5) in HepG2; settings: HepG2, FIG. 4
Excerpt: (§1) Then, 3 copies (Mol. Cell. Biol., 14, 700-712 (1994)) of various oligonucleotides (32-mers) containing the MARE sequences of SEQ ID NO: 1 through 7, comparative or control MARE sequences (SEQ ID NO: 1-4, 6 and 7), and an ARE sequence (SEQ ID NO: 5) were respectively inserted into the XhoI site of pUC118 vector with a modified poly-linker sequence. Further, the portion containing the 3 repeats of MARE sequence was excised at KpnI/BamHI site and inserted into the KpnI/BamHI site of pRBGP3. As an example of the above 32mer sequence, the one containing MARE of SEQ ID NO: 2 is shown in SEQ ID NO: 20. Here, tcgag represents the XhoI site.
(§2) Thus obtained were 3xMARE/RBGP-Luc and 3xARE/RBGP-Luc plasmids containing 3 repeats of 32 oligonucleotide sequences containing the 13 oligonucleotides shown in SEQ ID NO: 1 through 7 (MARE sequences, ARE sequences, and the corresponding comparative and control sequences). SEQ ID NO: 21 is an example of the sequence contained in the resulting 3xMARE/RBGP-Luc using SEQ ID NO: 2 as MARE. The obtained recombinant expression vectors were used for subsequent transfections.
(§3) Transfections were carried out using SUPERFECT Transfection Reagent (Qiagen) according to the protocol accompanying the reagent. Human hepatocellular calcinoma cell line HepG2 was subcultured on a 35 mm plate and, after 24 hours, the transfection was carried out. Thus, a transfection solution containing 100 μl of a vector solution containing 0.25 μg of the above plasmid, 100 μl of SUPERFECT transfection reagent, and 600 μl of DMEM serum-free medium were added to a PBS-washed cell plate. After 2 hours of incubation at 37° C., the medium was changed to 10% FCS-supplemented DMEM. After 2 hours, stimulating reagents containing various heavy metal compounds inclusive of auranofin; Ridaura™, product of Sigma; 2,3,4,6-tetra-O-acetyl-1-thio-β-D-glucopyranosato-S) (triethylphosphine)gold were added and the culture was continued. The luciferase activity in the cells was assayed 15-18 hours later.
(§4) The assay of luciferase activity was carried out using Dual-Luciferase Reporter Assay System (product of Promega) according to the manufacture's protocol.
(§5) To the culture plate was added 100 μl of the cytolytic buffer included in the […] kit to lyse the cells, and using a bench-top centrifuge, the lysate was centrifuged at 15,000 rpm for 5 seconds. The supernatant, 20 μl, of the lysate was mixed with 100 μl of the attached reagent LARII and the first chemiluminescence was measured with a luminometer. Then, 100 μl of the stopper (Stop & Glo Reagent) was added and the second chemniluminescence was measured.
(§6) The ratio of the first and second chemiluminescences was determined to calculate luciferase activity.
The results are shown in FIG. 4 similar to FIG. 1 (the abbreviations of reagents added are the same as above; each luciferase activity ratio was calculated with the control value found by culture of the vector in the absence of the test reagent being taken as 1).

[2] = test system: control MARE of SEQ ID No: 6; test: Luciferase reporter assay, control MARE of SEQ ID NO: 6 in HepG2; settings: 5 μM auranofin vs absence, 18 hours, HepG2, FIG. 3
Excerpt: as §1, with “site. […]” for “site.”
as §5
(§7) The ratio of the first and second chemiluminescences was determined to calculate luciferase activity. […]

[3] = test system: MARE sequence of SEQ ID NO: 2; test: Luciferase reporter assay, 3xMARE/RBGP-Luc (MARE of SEQ ID NO: 2) transfected into HepG2
Excerpt: (a) Construction of a Recombinant Vector
As the basal skeleton of the recombinant vector, pGL2-Basic (product of Promega) was used. This vector is a luciferse expression vector.
The SV40 promoter of the above pGL2-Basic was substituted with oligonucleotides (SEQ ID NO: 8 and NO: 9, 41-mer each) containing the TATA sequence of rabbit β-globin promoter at Bgl II/Hind III site to construct pRBGP3 (Nature, 367, 568-572 (1994)).
as §1, §2, §3, §4, §5, §6
The recombinant expression vector (reporter plasmid) ligated with the MARE sequence of SEQ ID NO: 2 as constructed under (a) above, namely 3xMARE/RBGP-Luc, was used. Stimulating reagents containing various heavy metal compounds, namely 100 μM each of manganese chloride (MnCl2), cobalt chloride (CoCl2), nickel chloride (NiCl2), copper sulfate (CuSO4), zinc sulfate (ZnSO4), cadmium sulfate (CdSO4), mercury chloride (HgCl2) and sodium tetrachloroaurate(III) (Na(AuCl4)) and 5 μM of auranofin, were respectively added and the cells were cultured by the above procedure (b) for 18 hours. Then, luciferase activity was measured by the procedure described under (c) above. […]

[4] = test system: MARE sequence of SEQ ID NO: 1; test: Luciferase reporter assay, 3xMARE/RBGP-Luc (MARE of SEQ ID NO: 1) in HepG2; settings: 5 μM auranofin vs absence, 18 hours, HepG2, FIG. 3
Excerpt: as §1, with “site. […]” for “site.”
as §5, §7

[5] = test system: AP-1 (activator protein-1) element of SEQ ID NO: 7; test: Luciferase reporter assay, AP-1 element of SEQ ID NO: 7 in HepG2; settings: 5 μM auranofin vs absence, 18 hours, HepG2, FIG. 3
Excerpt: as §1, with “site. […]” for “site.”
as §5, §7

[6] = test system: MARE sequence of SEQ ID NO: 4; test: Luciferase reporter assay, 3xMARE/RBGP-Luc (MARE of SEQ ID NO: 4) in HepG2; settings: 5 μM auranofin vs absence, 18 hours, HepG2, FIG. 3
Excerpt: as §1, with “site. […]” for “site.”
as §5, §7

[7] = test system: 5xSRE (c-fos) serum response element; test: Luciferase reporter assay, positive control 5xSRE (c-fos) in HepG2; settings: 5 μM auranofin vs absence, 18 hours, HepG2, FIG. 3
Experimental: (§8) Transfections were carried out using SUPERFECT Transfection Reagent (Qiagen) according to the protocol accompanying the reagent. Human hepatocellular calcinoma cell line HepG2 was subcultured on a 35 mm plate and, after 24 hours, the transfection was carried out. Thus, a transfection solution containing 100 μl of a vector solution containing 0.25 μg of the above plasmid, 100 μl of SUPERFECT transfection reagent, and 600 μl of DMEM serum-free medium were added to a PBS-washed cell plate. After 2 hours of incubation at 37° C., the medium was changed to 10% FCS-supplemented DMEM. […]
as §5, §7
(§9) Each of the above vectors was cultured by the above procedure (b) for 18 hours in the presence of 5 μM auranofin or in the absence thereof and the luciferase activity was measured by the above procedure (c). […]

[8] = test system: MARE sequence of SEQ ID NO: 3; test: Luciferase reporter assay, 3xMARE/RBGP-Luc (MARE of SEQ ID NO: 3) in HepG2; settings: 5 μM auranofin vs absence, 18 hours, HepG2, FIG. 3
Excerpt: as §1, with “site. […]” for “site.”
as §5, §7

[9] = test system: 5xkB (IL2R-a) kB element; test: Luciferase reporter assay, positive control 5xkB (IL2R-a) in HepG2; settings: 5 μM auranofin vs absence, 18 hours, HepG2, FIG. 3
Experimental: as §8, §5, §7, §9

[10] = 100 μM heavy metal compound, 18 hours, HepG2, control taken as 1, FIG. 1

OC[C@H]1O[C@H]([S-])[C@H](O)[C@@H](O)[C@@H]1O.[Au+] [AuTG, (1-thio-D-glucopyranosato)gold]
activity ratio (luciferase activity ratio, control taken as 1) ([1]; 500 μM): 21.7±15.4

O=C([O-])CC([S-])C(=O)[O-].[Au+].[Na+].[Na+] (centres unmarked) [AuTM, sodium aurothiomalate]
activity ratio (luciferase activity ratio, control taken as 1) ([1]; 100 μM): 8.1±0.4

CC[PH](CC)(CC)[Au][S][C@@H]1O[C@H](COC(C)=O)[C@@H](OC(C)=O)[C@H](OC(C)=O)[C@H]1OC(C)=O [auranofin, (2,3,4,6-tetra-O-acetyl-1-thio-β-D-glucopyranosato-S)(triethylphosphine)gold]
action on the reporter (luciferase activity ratio) [2]: does not act on
transcription activity ratio (luciferase activity ratio) ([3]; 5 μM auranofin vs absence, 18 hours, HepG2, FIG. 3, study (3)): 158.7
luciferase activity in multiples of untreated control (Fold Activation) ([3]; 5 μM auranofin, 18 hours, HepG2, control taken as 1, FIG. 1, study (1)): 142.4 times
dose dependence of MARE activation (luciferase activity ratio, Fold Activation) ([3]; AUR 0.5-20 μM, AuTG 20-500 μM, AuTM 10-500 μM, HepG2, FIG. 2): outstanding luciferase activation compared with the other two kinds of gold compounds
transcription activity ratio (luciferase activity ratio) [4]: 53.3
action on the reporter (luciferase activity ratio) [5]: does not act on
transcription activity ratio (luciferase activity ratio) [6]: 112.9
action on the reporter (luciferase activity ratio) [7]: does not act on
transcription activity ratio (luciferase activity ratio) [8]: 30.8
activity ratio (luciferase activity ratio, control taken as 1) ([1]; 5 μM): 102.9±53.4
activity relative to that of tBHQ ([1]; AUR 5 μM vs tBHQ 60 μM): about 30 times
action on the reporter (luciferase activity ratio) [9]: does not act on

O=S(=O)([O-])[O-].[Cd+2] [cadmium sulfate]
luciferase activity in multiples of untreated control (Fold Activation) [3, 10]: 27.3

[Cl][Co][Cl] [cobalt chloride]
luciferase activity in multiples of untreated control (Fold Activation) [3, 10]: 6.9

[Cl][Hg][Cl] [mercury chloride]
luciferase activity in multiples of untreated control (Fold Activation) [3, 10]: 10

[Cl][Au-]([Cl])([Cl])[Cl].[Na+] [sodium tetrachloroaurate(III)]
luciferase activity in multiples of untreated control (Fold Activation) [3, 10]: 4.3

CC(C)(C)c1cc(O)c(C(C)(C)C)cc1O [tBHQ, 2,5-di-tert-butylhydroquinone]
activity ratio (luciferase activity ratio, control taken as 1) ([1]; 60 μM): 6.0±3.8

O=C(O)CC(S)C(=O)O (centres unmarked) [thiomalate]
activity ratio (luciferase activity ratio, control taken as 1) ([1]; 100 μM): 2.1±0.6

— patent US6908761B1, “Transcriptional activators” (Otsuka Pharmaceutical Co., Ltd., priority 1999, dated 2005)
